Laboratory results from ChEMBL document CHEMBL2074505, “Imaging reversal of multidrug resistance in living mice with bioluminescence: MDR1 P-glycoprotein transports coelenterazine” (Proc Natl Acad Sci U S A, 2004).

Biological target: ATP-dependent translocase ABCB1 (Homo sapiens, UniProt P08183)
Test: TP_TRANSPORTER: efflux in KB 8-5-11 Rluc cells
Type: functional, cell-based

Sequence of ATP-dependent translocase ABCB1 (P08183 whole entry): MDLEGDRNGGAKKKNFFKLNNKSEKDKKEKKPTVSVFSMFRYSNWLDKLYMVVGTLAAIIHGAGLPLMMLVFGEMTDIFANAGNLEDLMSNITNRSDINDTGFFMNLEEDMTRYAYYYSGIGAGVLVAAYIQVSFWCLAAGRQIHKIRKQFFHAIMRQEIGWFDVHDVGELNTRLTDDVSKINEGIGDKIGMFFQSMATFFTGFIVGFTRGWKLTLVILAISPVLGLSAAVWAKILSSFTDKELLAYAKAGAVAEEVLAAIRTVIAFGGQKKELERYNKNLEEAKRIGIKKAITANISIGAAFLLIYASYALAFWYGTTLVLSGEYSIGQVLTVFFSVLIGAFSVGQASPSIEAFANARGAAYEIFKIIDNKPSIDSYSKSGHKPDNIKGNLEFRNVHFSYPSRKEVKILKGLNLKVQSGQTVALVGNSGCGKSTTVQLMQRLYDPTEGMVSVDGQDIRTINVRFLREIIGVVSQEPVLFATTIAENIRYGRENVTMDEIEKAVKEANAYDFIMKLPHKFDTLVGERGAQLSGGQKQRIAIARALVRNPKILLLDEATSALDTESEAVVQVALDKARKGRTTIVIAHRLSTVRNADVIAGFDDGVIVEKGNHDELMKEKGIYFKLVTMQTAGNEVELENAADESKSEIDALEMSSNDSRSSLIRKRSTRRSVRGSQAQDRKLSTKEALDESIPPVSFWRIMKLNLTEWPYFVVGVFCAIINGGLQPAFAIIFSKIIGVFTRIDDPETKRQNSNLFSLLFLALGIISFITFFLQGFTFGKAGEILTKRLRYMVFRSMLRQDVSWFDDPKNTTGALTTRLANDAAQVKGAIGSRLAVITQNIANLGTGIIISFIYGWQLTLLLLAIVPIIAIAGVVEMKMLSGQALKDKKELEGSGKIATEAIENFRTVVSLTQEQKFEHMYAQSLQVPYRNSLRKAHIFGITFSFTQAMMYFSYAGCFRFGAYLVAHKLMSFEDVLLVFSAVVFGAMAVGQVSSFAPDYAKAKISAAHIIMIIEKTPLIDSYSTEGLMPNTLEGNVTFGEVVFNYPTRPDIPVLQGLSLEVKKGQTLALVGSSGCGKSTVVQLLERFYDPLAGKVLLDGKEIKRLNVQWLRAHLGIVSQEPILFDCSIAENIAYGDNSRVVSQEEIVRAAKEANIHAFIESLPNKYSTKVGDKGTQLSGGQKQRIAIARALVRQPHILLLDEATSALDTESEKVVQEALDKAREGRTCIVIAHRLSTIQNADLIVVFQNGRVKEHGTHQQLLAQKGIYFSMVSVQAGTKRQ

`Oc1ccc(Cc2nc3c(Cc4ccccc4)nc(-c4ccc(O)cc4)cn3c2O)cc1` [COELENTERAZINE] was tested, and the EC50 was 147 nM.
